One may read the Kd as the constant that tells how readily two partners part at equilibrium. One may read the half-life as how long it takes for the measured level to halve. Read a high half-life as slow decline. What is called AUC is the area under the concentration-time curve, a measure of exposure. A low value points to low exposure. The AUC(0-t) is the area under the concentration-time curve up to a stated or last time point. A high value points to more exposure. As a reminder, the Tmax is the time at which the peak concentration occurs. For orientation: MRT inf means the average time that molecules of a dose stay in the body. The solubility (thermodynamic) is the concentration in solution at equilibrium with solid.

The results in this text go back to ChEMBL document CHEMBL6153170 (J Med Chem, 2025).

In brackets after ≈: the same amount, converted by molar mass. Activity calls are given as the source filed them. No cut-off for these calls is given here.

Series [1] concerns the target Programmed cell death 1 ligand 1 (Mus musculus, UniProt Q9EP73). Kind of series: Binding affinity to C-terminal 6His-tagged recombinant mouse PD-L1 (1 to 238 residues) expressed in HEK293 cells assessed as dissociation constant by SPR analysis.
The nature of series [2]: Toxicity in C57 mouse assessed as myelosuppression by measuring neutrophil level at 20 mg/kg/day, IG administered for 14 days by heat map analysis. The format is organism-based. The following applies: in vivo, po, 336 h, time 14 day.
Series [3] is described as follows: Toxicity in C57 mouse assessed as myelosuppression by measuring MCH level at 20 mg/kg/day, IG administered for 14 days by heat map analysis. Format: organism-based. Conditions: in vivo, po, 336 h, time 14 day.
Series [4] is described as follows: Half-life in male Sprague-Dawley rat at 2 mg/kg, iv measured after 48 hrs by triple quadrupole mass spectrometric analysis. Format: ADME, organism-based. Conditions: in vivo.
The subject of series [5] is B16-F10. Kind of series: Downregulation of p-STAT3 expression level in mouse B16-F10 cells at 0.1 to 2 uM incubated for 24 hrs by Western blot analysis. The format is functional, cell-based. Conditions: dose 0.1-2 µM.
Series [6] can be described thus: AUC (0 to infinity) in male Sprague-Dawley rat at 10 mg/kg, po measured after 48 hrs by triple quadrupole mass spectrometric analysis. The format is ADME, organism-based. Conditions: in vivo.
Series [7] in a line: AUC (0 to t) in male Sprague-Dawley rat at 2 mg/kg, iv measured after 48 hrs by triple quadrupole mass spectrometric analysis. Conditions: in vivo. The format is ADME, organism-based.
The nature of series [8]: Toxicity in C57 mouse assessed as change in UREA level at 20 mg/kg/day, IG administered for 14 days by heat map analysis. Format: organism-based. The following applies: in vivo, po, 336 h, time 14 day.
Series [9] is described as follows: Tmax in male Sprague-Dawley rat at 10 mg/kg, po measured after 48 hrs by triple quadrupole mass spectrometric analysis. The format is ADME, organism-based. The following applies: in vivo.
The target in series [10] is Programmed cell death 1 ligand 1 (Mus musculus) (UniProt Q9EP73). Kind of series: Binding affinity to C-terminal 6His-tagged recombinant mouse PD-L1 (1 to 238 residues) expressed in HEK293 cells assessed as change in secondary structure conformation at 2 uM incubated for 30 mins by CD spectra analysis. The format is cell-based.
Series [11] in a line: Toxicity in C57BL/6 mouse model implanted with mouse B16-F10 cells assessed as morphological changes in liver at 20 mg/kg/day, ip administered for 14 days by H and E staining based analysis. Format: organism-based. Conditions: in vivo, 336 h, time 14 day.
Series [12] relates to B16-F10. Kind of series: Effect on STAT3 expression level in mouse B16-F10 cells at 0.1 to 2 uM incubated for 24 hrs by Western blot analysis. The format is functional, cell-based. The following applies: dose 0.1-2 µM. On the technique in general: A western blot detects proteins with antibodies after separation by electrophoresis.
Series [13] is described as follows: MRT (0 to infinity) in male Sprague-Dawley rat at 10 mg/kg, po measured after 48 hrs by triple quadrupole mass spectrometric analysis. The format is ADME, organism-based. Conditions: in vivo.
The test system of series [14] is B16-F10. Kind of series: Antitumor activity against mouse B16-F10 cells implanted in C57BL/6 mouse model assessed as reduction in tumor volume at 20 mg/kg/day, ip administered for 14 days. Format: functional, organism-based. Conditions: time 14.0 day.
For another series, the system named is Jurkat. Briefly: Cytotoxicity against human Jurkat T cells assessed as reduction in cell viability at 3.3 to 10 uM incubated for 48 hrs. The following applies: dose 3.3-10 µM. The format is functional, cell-based.
A short description of series [15]: Toxicity in C57 mouse assessed as myelosuppression by measuring MCV level at 20 mg/kg/day, IG administered for 14 days by heat map analysis. The format is organism-based. Conditions: in vivo, po, 336 h, time 14 day.
Series [16] is described as follows: Aqueous solubility of compound incubated for 24 hrs by miniaturized shake flask based HPLC analysis. Format: physicochemical. Conditions: buffer.
The test system of series [17] is B16-F10. Briefly: Antitumor immunity activity against mouse B16-F10 cells implanted in C57BL/6 mouse model assessed as CD3+ CD8+ T cell percentage in tumor at 20 mg/kg/day, ip co-administered with ACY-1215 for 14 days by flow cytometric analysis (reference value: 0.52 %). Conditions: time 14 day. Format: functional. For orientation: Flow cytometry measures light scatter and fluorescence of single cells or particles in a stream.

Series [18] in a line: Toxicity in C57 mouse assessed as myelosuppression by measuring PCT level at 20 mg/kg/day, IG administered for 14 days by heat map analysis. Format: organism-based. The following applies: in vivo, po, 336 h, time 14 day.
Series [19] can be described thus: Toxicity in C57 mouse assessed as myelosuppression by measuring hemoglobin level at 20 mg/kg/day, IG administered for 14 days by heat map analysis. Format: organism-based. The following applies: in vivo, po, 336 h, time 14 day.
Series [20] concerns B16-F10. Briefly: Antitumor activity against mouse B16-F10 cells implanted in C57BL/6 mouse model assessed as tumor growth inhibition at 20 mg/kg/day, ip co-administered with ACY-1215 for 14 days relative to control. Format: functional. The following applies: B16-F10, 336 h, time 14 day, read-out: TGI.
Series [21] in a line: Toxicity in C57 mouse assessed as myelosuppression by measuring MCHC level at 20 mg/kg/day, IG administered for 14 days by heat map analysis. The format is organism-based. The following applies: in vivo, po, 336 h, time 14 day.
Series [22] has as its system B16-F10. Kind of series: Effect on acetylated histone H3 protein level in mouse B16-F10 cells at 0.1 to 2 uM incubated for 12 hrs by Western blot analysis. Format: functional, cell-based. The following applies: dose 0.1-2 µM.

Chain of Programmed cell death 1 ligand 1 (Q9EP73 whole entry, the tested form may be a part): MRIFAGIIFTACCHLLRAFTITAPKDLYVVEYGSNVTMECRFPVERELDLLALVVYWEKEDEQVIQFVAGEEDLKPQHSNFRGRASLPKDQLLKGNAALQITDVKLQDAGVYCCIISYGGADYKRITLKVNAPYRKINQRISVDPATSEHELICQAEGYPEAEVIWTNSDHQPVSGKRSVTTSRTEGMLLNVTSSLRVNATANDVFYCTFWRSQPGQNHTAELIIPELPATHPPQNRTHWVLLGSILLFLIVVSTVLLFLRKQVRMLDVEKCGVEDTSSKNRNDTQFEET
Chain of Programmed cell death 1 ligand 1 (Mus musculus) (Q9EP73 whole entry, the tested form may be a part): as above

As to `COc1nc(-c2cccc(-c3ccccc3)c2C)ccc1CNCCCCCCC(=O)NO`, the dissociation constant Kd in series [1] was 55.3 nM. Besides, the Activity entry in series [2] is listed as “Non-toxic”; in series [3] it was “Non-toxic”; in series [8], “Non-toxic”; in series [11], “Non-toxic”; in the series with Jurkat it was “Active; Mild Cytotoxicity Observed”; in series [15] it was “Non-toxic”. In addition, the Activity in the series with B16-F10 [17] is 6.39%; in [18] it was “Non-toxic”; in series [19] it was “Non-toxic”; in series [21], “Non-toxic”; in the series with B16-F10 [22], “Active; Negligible Effect Observed”. Further, in series [4], the half-life was 6.9 h. In addition, the result (in the series with B16-F10 [5]; in series [10]; with B16-F10 [14]) was Active. The AUC in series [6] was found to be 1076.36 ng·h/mL. This compound also displayed an area under the curve AUC(0-t) at 48 h in series [7] of 1140 ng·h/mL. In addition, the Tmax in series [9] was determined as 5.55 h. Also, the outcome in the series on B16-F10 [12] was inactive. The compound also registered a mean residence time MRT inf in series [13] of 19.3 h. In [16], this compound gave a solubility (thermodynamic) at 24 h of 57 µg/mL (≈ 127 µM). Further, in the series on B16-F10 [20], the inhibition in vivo at 20 mg/kg/day turned out to be 53.9%.
